Columns and labels:
[1] = molecular target: ligand binding domain of human FXR (Homo sapiens (Human), UniProt Q96RI1); test: FXR ligand binding assay (LanthaScreen TR-FRET, SRC2-2 peptide recruitment); settings: for pEC50: -log EC50, concentration required to produce 50% activation; for Emax: extent of activation relative to GW4064, read-out: % Efficacy
[2] = molecular target: human Farnesoid X receptor ligand-binding domain/Gal4 DNA binding domain chimera (Homo sapiens (Human), UniProt Q96RI1); test: Cell-based assay of FXR activation (FXR-UAS-bla HEK 293T beta-lactamase reporter); settings: cellular FXR beta-lactamase reporter assay; for Emax: HEK-293T, extent of activation relative to GW4064, read-out: % Efficacy; for EC50: FXR-UAS-bla HEK 293T cells, 16 h, pEC50 = -log EC50
Sequence of human Farnesoid X receptor ligand-binding domain/Gal4 DNA binding domain chimera (Q96RI1 262-486, change not shown): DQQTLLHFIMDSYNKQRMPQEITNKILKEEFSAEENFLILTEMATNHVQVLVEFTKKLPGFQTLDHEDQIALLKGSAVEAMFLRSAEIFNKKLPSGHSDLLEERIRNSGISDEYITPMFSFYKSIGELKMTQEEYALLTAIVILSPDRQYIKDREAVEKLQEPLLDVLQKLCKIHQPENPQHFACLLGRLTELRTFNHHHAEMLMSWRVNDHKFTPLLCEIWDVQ
Sequence of human Farnesoid X receptor ligand-binding domain/Gal4 DNA binding domain chimera (P04386 1-147 partner): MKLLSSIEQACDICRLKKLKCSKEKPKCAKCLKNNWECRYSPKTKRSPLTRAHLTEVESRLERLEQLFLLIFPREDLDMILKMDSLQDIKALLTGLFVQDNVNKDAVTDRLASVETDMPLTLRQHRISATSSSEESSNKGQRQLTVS
Procedure, shortened: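 Readout is cleavage of the CCF4 FRET substrate (409 nm excitation, blue 447 nm signal) by beta-lactamase, expressed under UAS control after a Gal4–human FXR LBD chimera is activated in HEK 293T cells. Compounds were added as 3-fold dilutions for 16 h at 37 °C in 2% charcoal-stripped FBS medium. Curves were fit to a 3-parameter logistic equation to give pEC50, with % activation relative to GW4064.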

Sequence of ligand binding domain of human FXR (Q96RI1 262-486): as the sequence (Q96RI1 262-486, change not shown) above

SMILES: O=C(NS(=O)(=O)C1CC1)c1ccc(N2C[C@@H]3C[C@H]2C[C@H]3OCc2c(-c3c(Cl)cccc3Cl)noc2C2CC2)c(F)c1 [Compound I-62, N-(cyclopropanesulfonyl)-4-[(1S,4S,5R)-5-{[5-cyclopropyl-3-(2,6-dichlorophenyl)-1,2-oxazol-4-yl]methoxy}-2-azabicyclo[2.2.1]heptan-2-yl]-3-fluorobenzamide]
- pEC50 [1]: 7.9
- Emax [1]: 188%
- Emax [2]: 112%
- EC50 [2]: 0.158 nM

SMILES: O=C(NS(=O)(=O)CC1CCOCC1)c1ccc(N2C(=O)[C@@H]3C[C@H]2C[C@H]3OCc2c(-c3c(Cl)cccc3Cl)noc2C2CC2)cc1F [Compound I-333, 4-((1S,4R,5R)-5-((5-cyclopropyl-3-(2,6-dichlorophenyl)isoxazol-4-yl)methoxy)-3-oxo-2-azabicyclo[2.2.1]heptan-2-yl)-2-fluoro-N-(((tetrahydro-2H-pyran-4-yl)methyl)sulfonyl)benzamide]
- pEC50 [1]: 8.8
- Emax [1]: 158%
- Emax [2]: 112%
- EC50 [2]: 0.501 nM

SMILES: O=C(O)c1cc(C2CCC2)c2nc(N3C(=O)[C@@H]4C[C@H]3C[C@H]4OCc3c(-c4c(Cl)cccc4Cl)noc3C3CC3)sc2c1 [Compound I-296, 4-cyclobutyl-2-((1S,4R,5R)-5-((5-cyclopropyl-3-(2,6-dichlorophenyl)isoxazol-4-yl)methoxy)-3-oxo-2-azabicyclo[2.2.1]heptan-2-yl)benzo[d]thiazole-6-carboxylic acid]
- pEC50 [1]: 7.6
- Emax [1]: 90%
- Emax [2]: 109%
- EC50 [2]: 10 nM

SMILES: O=C(NS(=O)(=O)C1CC1)c1ccc(N2C(=O)[C@@H]3C[C@H]2C[C@H]3OCc2c(-c3c(Cl)cccc3Cl)noc2C2CC2)cc1 [Compound I-337, 4-((1S,4R,5R)-5-((5-cyclopropyl-3-(2,6-dichlorophenyl)isoxazol-4-yl)methoxy)-3-oxo-2-azabicyclo[2.2.1]heptan-2-yl)-N-(cyclopropylsulfonyl)benzamide]
- pEC50 [1]: 8.6
- Emax [1]: 174%
- Emax [2]: 110%
- EC50 [2]: 2 nM

SMILES: CS(=O)(=O)NC(=O)c1cc(F)c2nc(N3C[C@@H]4C[C@H]3C[C@H]4OCc3c(-c4c(Cl)cccc4Cl)noc3C3CC3)sc2c1 [Compound I-28, 2-[(1S,4S,5R)-5-{[5-cyclopropyl-3-(2,6-dichlorophenyl)-1,2-oxazol-4-yl]methoxy}-2-azabicyclo[2.2.1]heptan-2-yl]-4-fluoro-N-methanesulfonyl-1,3-benzothiazole-6-carboxamide]
- pEC50 [1]: 8.9
- Emax [1]: 153%
- Emax [2]: 122%
- EC50 [2]: 2 nM

SMILES: CC(=O)OCCCS(=O)(=O)NC(=O)c1ccc(N2C[C@@H]3C[C@H]2C[C@H]3OCc2c(-c3c(Cl)cccc3Cl)noc2C2CC2)cc1 [Compound I-214, 3-[({4-[(1S,4S,5R)-5-{[5-cyclopropyl-3-(2,6-dichlorophenyl)-1,2-oxazol-4-yl]methoxy}-2-azabicyclo[2.2.1]heptan-2-yl]phenyl}formamido)sulfonyl]propyl Acetate]
- pEC50 [1]: 8.6
- Emax [1]: 138%
- Emax [2]: 105%
- EC50 [2]: 2.51 nM

SMILES: O=C(O)c1cc(C2CCOCC2)c2nc(N3C[C@@H]4C[C@H]3C[C@H]4OCc3c(-c4c(Cl)cccc4Cl)noc3C3CC3)sc2c1 [Compound I-254, 2-[(1S,4S,5R)-5-{[5-cyclopropyl-3-(2,6-dichlorophenyl)-1,2-oxazol-4-yl]methoxy}-2-azabicyclo[2.2.1]heptan-2-yl]-4-(oxan-4-yl)-1,3-benzothiazole-6-carboxylic Acid]
- pEC50 [1]: 9
- Emax [1]: 143%
- Emax [2]: 106%
- EC50 [2]: 0.316 nM

SMILES: O=C(O)C1(c2ccc(N3C[C@@H]4C[C@H]3C[C@H]4OCc3c(-c4c(Cl)cccc4Cl)noc3C3CC3)cc2)CCC1 [Compound I-150, 1-{4-[(1S,4S,5R)-5-{[5-cyclopropyl-3-(2,6-dichlorophenyl)-1,2-oxazol-4-yl]methoxy}-2-azabicyclo[2.2.1]heptan-2-yl]phenyl}cyclobutane-1-carboxylic Acid]
- pEC50 [1]: 8.9
- Emax [1]: 102%
- Emax [2]: 96%
- EC50 [2]: 25.1 nM

SMILES: O=C(O)c1cc(C2CCCC2)c2nc(N3C[C@@H]4C[C@H]3C[C@H]4OCc3c(-c4c(Cl)cccc4Cl)noc3C3CC3)sc2c1 [Compound I-250, 4-cyclopentyl-2-[(1S,4S,5R)-5-{[5-cyclopropyl-3-(2,6-dichlorophenyl)-1,2-oxazol-4-yl]methoxy}-2-azabicyclo[2.2.1]heptan-2-yl]-1,3-benzothiazole-6-carboxylic Acid]
- pEC50 [1]: 7.8
- Emax [1]: 128%
- Emax [2]: 114%
- EC50 [2]: 0.501 nM

SMILES: CCCS(=O)(=O)NC(=O)c1ccc(N2C[C@@H]3C[C@H]2C[C@H]3OCc2c(-c3c(Cl)cccc3Cl)noc2C2CC2)c(F)c1 [Compound I-61, 4-[(1S,4S,5R)-5-{[5-cyclopropyl-3-(2,6-dichlorophenyl)-1,2-oxazol-4-yl]methoxy}-2-azabicyclo[2.2.1]heptan-2-yl]-3-fluoro-N-(propane-1-sulfonyl)benzamide]
- pEC50 [1]: 8.7
- Emax [1]: 174%
- Emax [2]: 106%
- EC50 [2]: 0.0631 nM

SMILES: O=C(O)c1ccc(N2C(=O)[C@@H]3C[C@H]2C[C@H]3OCc2c(-c3c(F)cccc3Cl)noc2C2CC2)cc1 [Compound I-306, 4-[(1S,4R,5R)-5-{[3-(2-chloro-6-fluorophenyl)-5-cyclopropyl-1,2-oxazol-4-yl]methoxy}-3-oxo-2-azabicyclo[2.2.1]heptan-2-yl]benzoic Acid]
- pEC50 [1]: 8.2
- Emax [1]: 171%
- Emax [2]: 108%
- EC50 [2]: 2.51 nM

SMILES: Fc1cc(-c2nn[nH]n2)cc2sc(N3C[C@@H]4C[C@H]3C[C@H]4OCc3c(-c4c(Cl)cccc4Cl)noc3C3CC3)nc12 [Compound I-26, 2-[(1S,4S,5R)-5-{[5-cyclopropyl-3-(2,6-dichlorophenyl)-1,2-oxazol-4-yl]methoxy}-2-azabicyclo[2.2.1]heptan-2-yl]-4-fluoro-6-(2H-1,2,3,4-tetrazol-5-yl)-1,3-benzothiazole]
- pEC50 [1]: 8.4
- Emax [1]: 137%
- Emax [2]: 106%
- EC50 [2]: 25.1 nM

SMILES: O=C(NS(=O)(=O)C1CC1)c1ccc(N2C[C@@H]3C[C@H]2C[C@H]3OCc2c(-c3c(Cl)cccc3Cl)noc2C2CC2)cc1 [Compound I-60, N-(cyclopropanesulfonyl)-4-[(1S,4S,5R)-5-[[5-cyclopropyl-3-(2,6-dichlorophenyl)-1,2-oxazol-4-yl]methoxy]-2-azabicyclo[2.2.1]heptan-2-yl]benzamide]
- pEC50 [1]: 8.2
- Emax [1]: 170%
- Emax [2]: 105%
- EC50 [2]: 0.2 nM

SMILES: O=C(NS(=O)(=O)CCCO)c1ccc(N2C[C@@H]3C[C@H]2C[C@H]3OCc2c(-c3c(Cl)cccc3Cl)noc2C2CC2)cc1 [Compound I-215, 4-[(1S,4S,5R)-5-{[5-cyclopropyl-3-(2,6-dichlorophenyl)-1,2-oxazol-4-yl]methoxy}-2-azabicyclo[2.2.1]heptan-2-yl]-N-(3-hydroxypropanesulfonyl)benzamide]
- pEC50 [1]: 8.6
- Emax [1]: 142%
- Emax [2]: 107%
- EC50 [2]: 1.58 nM

SMILES: O=C(NCCS(=O)(=O)O)c1ccc(N2C[C@@H]3C[C@H]2C[C@H]3OCc2c(-c3c(Cl)cccc3Cl)noc2C2CC2)cc1 [Compound I-166, 2-({4-[(1S,4S,5R)-5-{[5-cyclopropyl-3-(2,6-dichlorophenyl)-1,2-oxazol-4-yl]methoxy}-2-azabicyclo[2.2.1]heptan-2-yl]phenyl}formamido)ethane-1-sulfonic Acid]
- pEC50 [1]: 8.7
- Emax [1]: 154%
- Emax [2]: 114%
- EC50 [2]: 50.1 nM

SMILES: O=C(NCCS(=O)(=O)O)c1ccc(N2C(=O)[C@@H]3C[C@H]2C[C@H]3OCc2c(-c3c(Cl)cccc3Cl)noc2C2CC2)cc1 [Compound I-359, 2-({4-[(1S,4R,5R)-5-{[5-cyclopropyl-3-(2,6-dichlorophenyl)-1,2-oxazol-4-yl]methoxy}-3-oxo-2-azabicyclo[2.2.1]heptan-2-yl]phenyl}formamido)ethane-1-sulfonic Acid]
- pEC50 [1]: 8.4
- Emax [1]: 148%
- Emax [2]: 126%
- EC50 [2]: 398 nM

SMILES: O=C(NS(=O)(=O)C1CCCC1)c1ccc(N2C(=O)[C@@H]3C[C@H]2C[C@H]3OCc2c(-c3c(Cl)cccc3Cl)noc2C2CC2)cc1 [Compound I-343, N-(cyclopentylsulfonyl)-4-((1S,4R,5R)-5-((5-cyclopropyl-3-(2,6-dichlorophenyl)isoxazol-4-yl)methoxy)-3-oxo-2-azabicyclo[2.2.1]heptan-2-yl)benzamide]
- pEC50 [1]: 9
- Emax [1]: 176%
- Emax [2]: 105%
- EC50 [2]: 0.1 nM

SMILES: N#Cc1cc(F)c(N2C[C@@H]3C[C@H]2C[C@H]3OCc2c(-c3c(Cl)cccc3Cl)noc2C2CC2)c(F)c1 [Compound I-54a, 4-[(1S,4S,5R)-5-[[5-cyclopropyl-3-(2,6-dichlorophenyl)-1,2-oxazol-4-yl]methoxy]-2-azabicyclo[2.2.1]heptan-2-yl]-3,5-difluorobenzonitrile]
- pEC50 [1]: 7.0
- Emax [1]: 162%
- Emax [2]: 112%
- EC50 [2]: 31.6 nM

SMILES: CC1(C)CC(S(=O)(=O)NC(=O)c2ccc(N3C(=O)[C@@H]4C[C@H]3C[C@H]4OCc3c(-c4c(Cl)cccc4Cl)noc3C3CC3)cc2F)CCO1 (stereo partly drawn) [Compound I-330, 4-[(1S,4R,5R)-5-{[5-cyclopropyl-3-(2,6-dichlorophenyl)-1,2-oxazol-4-yl]methoxy}-3-oxo-2-azabicyclo[2.2.1]heptan-2-yl]-N-[(2,2-dimethyloxan-4-yl)sulfonyl]-2-fluorobenzamide]
- pEC50 [1]: 8.8
- Emax [1]: 156%
- Emax [2]: 120%
- EC50 [2]: 0.158 nM

Source: patent US10793568B2, “Hormone receptor modulators for treating metabolic conditions and disorders” (ARDELYX, INC., priority 2016, dated 2020)
